This is an account of results in patent US5462952A, “Fenamate 1,3,4-thiadiazoles and 1,3,4-oxadiazoles as antiinflammatory agents” (Warner-Lambert Company, priority 1993, dated 1995).

Broadly, the IC50 is the concentration that inhibits the measured activity by half.

Structures can show the parent of a compound that is named as a salt. Where two headings read alike, the source gives them in different places.

One assay deals with Cyclooxygenase. Description: ARBC whole cell cyclooxygenase assay (PGF2α formation in RBL-1 cells, A23187-stimulated). The conditions noted are these: for ARBC, activity at the screening dose: Table 2, screening dose. Type of assay: cell-based, rat. Set-up: key to ARBC, activity at the screening dose: Not active at the screening dose. The method, then: (§1) The rat basophilic leukemia cell line (RBL-1) was obtained from the American Type Culture Collection (Rockville, Md.).
(§2) Radioimmunoassay (RIA) kits of LTB4 and PGF2α were obtained from Amersham (Arlington Heights, Ill.) and Seragen (Boston, Mass.), respectively.
(§3) RBL-1 cells are grown in suspension culture in Eagle's minimum essential medium supplemented with 12% fetal bovine serum at 37° C. in an incubator supplied with air-5% carbon dioxide. Cells are harvested by centrifugation. They are washed with cold phosphate buffered saline pH 7.4 (PBS; NaCl, 7.1 g; Na2 HPO4, 1.15 g; KH2 PO4, 0.2 g; and KCl, 0.2 g/l). Cells are finally suspended in PBS containing 1.0 mM calcium at a density of 2×10^6 cells/ml. Cells are incubated with and without test agent (in DMSO) (1% DMSO is without effect on arachidonic acid metabolism) for ten minutes at room temperature. Calcium ionophore A23187 (5 μM) is added and cells are incubated for seven minutes at 37° C. The reaction is stopped by chilling the tubes on ice for ten minutes. Cells are separated by centrifugation and the supernatant is stored at -20°. Aliquots (100 μl) are analyzed for LTB4 and PGF2α using radioimmunoassay kits as provided by the supplier.
(§4) Tables 1 and 2 contain biochemical data obtained from the whole cell assay described above as IC50 s which are calculated as the concentration of test compound causing 50% inhibition of LTB4 or PGF2α formation. Table 2 also provides the dose at which 40% of swelling is inhibited in the CFE-2 assay.

In the next assay the target is T1, 5-Lipoxygenase (Rattus norvegicus, UniProt P12527).
T1 construct: host or cells: RBL-1 (rat basophilic leukemia)
T1 sequence (P12527 1-673): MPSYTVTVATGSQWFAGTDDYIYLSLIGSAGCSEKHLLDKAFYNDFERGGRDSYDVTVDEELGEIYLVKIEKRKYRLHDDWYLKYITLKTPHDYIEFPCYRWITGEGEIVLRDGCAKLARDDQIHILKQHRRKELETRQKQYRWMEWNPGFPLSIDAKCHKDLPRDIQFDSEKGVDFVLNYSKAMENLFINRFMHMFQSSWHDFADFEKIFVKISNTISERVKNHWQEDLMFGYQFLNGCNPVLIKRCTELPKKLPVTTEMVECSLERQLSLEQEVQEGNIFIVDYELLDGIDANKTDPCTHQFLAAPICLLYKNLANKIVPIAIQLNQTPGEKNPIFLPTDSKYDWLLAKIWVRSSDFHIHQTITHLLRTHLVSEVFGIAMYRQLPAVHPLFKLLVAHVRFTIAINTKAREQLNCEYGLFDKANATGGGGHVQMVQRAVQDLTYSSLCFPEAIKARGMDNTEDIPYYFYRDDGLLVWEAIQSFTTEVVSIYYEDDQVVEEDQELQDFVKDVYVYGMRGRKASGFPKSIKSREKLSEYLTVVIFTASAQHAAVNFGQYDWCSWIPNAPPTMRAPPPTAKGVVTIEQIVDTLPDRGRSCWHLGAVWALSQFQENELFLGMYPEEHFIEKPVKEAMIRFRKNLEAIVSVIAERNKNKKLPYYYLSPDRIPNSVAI
Description: ARBL whole cell 5-lipoxygenase assay (LTB4 formation in RBL-1 cells, A23187-stimulated). Type of assay: cell-based. To be noted: for IC50: Table 2; for inhibition at 10 µM: Table 2, @ 10 μM; for ARBL, activity at the screening dose: Table 2, screening dose, class symbol N. Set-up: key to ARBL, activity at the screening dose: Not active at the screening dose. On the procedure:
as §1, §2, §3, §4

Setting [1] is: read-out: ARBL, % inhibition at given concentration.
Where [2] appears, read: Table 1, 16 μM, read-out: ARBL, % inhibition of LTB4 at 16 μM.

On to `Cc1ccc(Cl)c(Nc2ccccc2-c2nnc([S+](C)[O-])s2)c1Cl` (stereo not shown) [Example 29, 2,6-Dichloro-3-methyl-N-[2-[5-(methylsulfinyl)-1,3,4-thiadiazol-2-yl]phenyl]benzenamine], for which the IC50 with Cyclooxygenase (Table 2) was 8.48 µM; against 5-Lipoxygenase, 3.3 µM.
As to `C[S+]([O-])c1nnc(-c2ccccc2Nc2cccc(C(F)(F)F)c2)s1` (stereo not shown) [Example 31], the “ARBC, % inhibition at given concentration” value in the assay on Cyclooxygenase (Table 2, @ 10 μM) came out at 51%. In addition, the inhibition at 10 µM on 5-Lipoxygenase (setting [1]) was determined as 100%.
Take `Cc1ccc(Cl)c(Nc2ccccc2-c2nnc(NC(=N)N)o2)c1Cl` [Example 22, 5-[2-[(2,6-dichloro-3-methylphenyl)amino]phenyl]-1,3,4-oxadiazol-2-yl-guanidine monohydrochloride]: the “ARBC, activity at the screening dose” value with Cyclooxygenase (class symbol N) was “N”. Further, at 5-Lipoxygenase (setting [1]), the inhibition at 10 µM is 46%.
For `Nc1nnc(-c2ccccc2Nc2cccc(C(F)(F)F)c2)o1` [Example 16, 5-[2-[[3-(Trifluoromethyl)phenyl]amino]phenyl]-1,3,4-oxadiazol-2-amine], the IC50 in the assay with Cyclooxygenase (Table 2) stood at 7.12 µM; against 5-Lipoxygenase it was 0.68 µM.
Turning to `N=C(N)Nc1nnc(-c2ccccc2Nc2cccc(C(F)(F)F)c2)o1` [Example 27, 5-[2-[[3-(Trifluoromethyl)phenyl]amino]phenyl]-1,3,4-oxadiazol-2-yl-guanidine hydrochloride], the “ARBC, activity at the screening dose” value with Cyclooxygenase (class symbol N) is “N”. In addition, on 5-Lipoxygenase (setting [1]), the inhibition at 10 µM came out at 100%.
As for `Cc1ccc(Cl)c(Nc2ccccc2-c2nnc([S+](C)[O-])o2)c1Cl` (stereo not shown) [Example 21, 2,6-Dichloro-3-methyl-N-[2-[5-(methylsulfinyl)-1,3,4-oxadiazol-2-yl]phenyl]benzenamine], the half-inhibitory concentration (IC50) with Cyclooxygenase (Table 2) turned out to be 1.79 µM; on 5-Lipoxygenase it was 0.91 µM.
On to `Cc1ccc(Cl)c(Nc2ccccc2-c2nnc(S(C)(=O)=O)o2)c1Cl` [Example 20, 2,6-Dichloro-3-methyl-N-[2-[5-(methylsulfonyl)-1,3,4-oxadiazol-2-yl]phenyl]benzenamine], for which the half-maximal inhibitory concentration (IC50) amounted to 3 µM with Cyclooxygenase (Table 2) and 6.32 µM at 5-Lipoxygenase.
As to `Cc1ccc(Cl)c(Nc2ccccc2-c2nnc(N)s2)c1Cl` [Example 4, 5-[2-[(2,6-Dichloro-3-methylphenyl)amino]phenyl]-1,3,4-thiadiazol-2-amine], the IC50 was 6.1 µM in the assay with Cyclooxygenase (Table 1, footnote c); 6.1 µM in the assay with Cyclooxygenase (Table 2); 0.6 µM against 5-Lipoxygenase.
Turning to `Cc1ccc(Cl)c(Nc2ccccc2-c2nnc(N)o2)c1Cl` [Example 17, 5-[2-[[2,6-Dichloro-3-methylphenyl]amino]phenyl]-1,3,4-oxadiazol-2-amine], the “ARBC, activity at the screening dose” value in the assay on Cyclooxygenase (class symbol N) is on record as “N”. In addition, the inhibition at 10 µM on 5-Lipoxygenase (setting [1]) turned out to be 45%.
Take `Cc1ccc(Cl)c(Nc2ccccc2-c2n[nH]c(=O)o2)c1Cl` [Example 1]: the “ARBC, activity at the screening dose” value in the assay with Cyclooxygenase (class symbol N) is “N”. Also, on 5-Lipoxygenase, the “ARBL, activity at the screening dose” value is “N”.
At 5-Lipoxygenase, `Cc1cccc(Nc2ccccc2-c2n[nH]c(=S)o2)c1C` [Example 9, 5-[2-[(2,3-Dimethylphenyl)amino]phenyl]-1,3,4-oxadiazole-2(3H)-thione] came in with an IC50 of 1 µM.
As for `S=c1[nH]nc(Cc2ccccc2Nc2c(Cl)cccc2Cl)o1` [Example 7, 5-[[2-[(2,6-Dichlorophenyl)amino]phenyl]methyl]-1,3,4-oxadiazol-2(3H)-thion], the “ARBC, % inhibition of PGF2α at 16 μM” value with Cyclooxygenase (Table 1, 16 μM, class symbol N) is on record as “N (Less than 40% inhibition at 16 μM)”. The inhibition at 16 µM at 5-Lipoxygenase (setting [2]) stood at 88%.
With `CSc1nnc(-c2ccccc2Nc2cccc(C(F)(F)F)c2)s1` [Example 30, 3-Trifluoromethyl-N-[2-[5-(methylthio)-1,3,4-thiadiazol-2-yl]phenyl]benzenamine], the “ARBC, % inhibition at given concentration” value in the assay on Cyclooxygenase (Table 2, @ 10 μM) was 44%. The inhibition at 10 µM on 5-Lipoxygenase (setting [1]) is 66%.
In the case of `Cc1ccc(Cl)c(Nc2ccccc2-c2n[nH]c(=S)o2)c1Cl` [Example 2, 5-[2-[(2,6-Dichloro-3-methylphenyl)amino]phenyl]-1,3,4-oxadiazol-2(3H)-thione], the IC50 is 0.7 µM with Cyclooxygenase (Table 1, footnote c); 0.7 µM in the assay on Cyclooxygenase (Table 2); 0.74 µM against 5-Lipoxygenase. Besides, the inhibition at 16 µM at 5-Lipoxygenase (setting [2]) came out at 97%.
Consider `CS(=O)(=O)c1nnc(-c2ccccc2Nc2cccc(C(F)(F)F)c2)o1` [Example 25, N-[2-[5-(Methylsulfonyl)-1,3,4-oxadiazol-2-yl]phenyl]-3-trifluoromethyl benzenamine], for which the “ARBC, % inhibition at given concentration” value in the assay on Cyclooxygenase (Table 2, @ 10 μM) was determined as 48%. Also, the “ARBL, activity at the screening dose” value on 5-Lipoxygenase was “N”.
With `Cc1ccc(Cl)c(Nc2ccccc2-c2n[nH]c(=S)s2)c1Cl` [Example 5, 5-[2-[(2,6-Dichloro-3-methylphenyl)amino]phenyl]-1,3,4-thiadiazol-2(3H)-thione], in the assay with Cyclooxygenase (Table 2, @ 16 μM), the “ARBC, % inhibition at given concentration” value came to 47%. Further, the inhibition at 16 µM on 5-Lipoxygenase (Table 2, @ 16 μM, read-out: ARBL, % inhibition at given concentration) is 100%.
Turning to `CSc1nnc(-c2ccccc2Nc2cccc(C(F)(F)F)c2)o1` [Example 24, N-[2-[5-(Methylthio)-1,3,4-oxadiazol-2-yl]phenyl]-3-trifluoromethyl benzenamine], in the assay with Cyclooxygenase (Table 2, @ 10 μM), the “ARBC, % inhibition at given concentration” value is reported as 44%. The “ARBL, activity at the screening dose” value on 5-Lipoxygenase is recorded as “N”.
Consider `CSc1nnc(-c2ccccc2Nc2c(Cl)ccc(C)c2Cl)o1` [Example 19, 2,6-Dichloro-3-methyl-N-[2-[5-(methylthio)-1,3,4-oxadiazol-2-yl]phenyl]benzenamine], for which, in the assay with Cyclooxygenase (Table 2, @ 10 μM), the “ARBC, % inhibition at given concentration” value came out at 55%. The “ARBL, activity at the screening dose” value at 5-Lipoxygenase is “N”.
`N#CNc1nnc(-c2ccccc2Nc2cccc(C(F)(F)F)c2)o1` [Example 26, 5-[2-[[3-(Trifluoromethyl)phenyl]amino]phenyl]-1,3,4-oxadiazol-2-yl-cyanamide] gave an IC50 in the assay with Cyclooxygenase (Table 2) of 1.04 µM.
On to `Cc1cccc(Nc2ccccc2-c2n[nH]c(=O)o2)c1C` [Example 8, 5-[2-[(2,3-Dimethylphenyl)amino]phenyl]-1,3,4-oxadiazol-2(3H)-one], for which the “ARBC, activity at the screening dose” value in the assay on Cyclooxygenase (class symbol N) is reported as “N”. In addition, the “ARBL, activity at the screening dose” value on 5-Lipoxygenase was “N”.
For the compound `Nc1nnc(-c2ccccc2Nc2cccc(C(F)(F)F)c2)s1` [Example 10, 5-[2-[(3-Trifluoromethylphenyl)amino]phenyl]-1,3,4-thiadiazol-2-amine], the IC50 in the assay on Cyclooxygenase (Table 2) amounted to 11 µM; on 5-Lipoxygenase it was 0.69 µM.
In the case of `Cc1ccc(Cl)c(Nc2ccccc2-c2nnco2)c1Cl` [Example 18, 2,6-Dichloro-3-methyl-N-[2-(1,3,4-oxadiazol-2-yl)phenyl]benzenamine], the “ARBC, activity at the screening dose” value in the assay on Cyclooxygenase (class symbol N) was “N”. The “ARBL, activity at the screening dose” value on 5-Lipoxygenase was “N”.
For the compound `CSc1nnc(-c2ccccc2Nc2c(Cl)ccc(C)c2Cl)s1` [Example 28, 2,6-Dichloro-3-methyl-N-[2-[5-(methylthio)-1,3,4-thiadiazol-2-yl]phenyl]benzenamine], the “ARBC, % inhibition at given concentration” value with Cyclooxygenase (Table 2, @ 10 μM) turned out to be 60%. Also, the “ARBL, activity at the screening dose” value at 5-Lipoxygenase is on record as “N”.
Consider `Cc1ccc(Cl)c(Nc2ccccc2-c2nnc(NC#N)o2)c1Cl` [Example 23, 5-[2-[(2,6-Dichloro-3-methylphenyl)amino]phenyl]-1,3,4-oxadiazol-2-yl-cyanamide], for which the half-maximal inhibitory concentration (IC50) in the assay on Cyclooxygenase (Table 2) stood at 0.25 µM; at 5-Lipoxygenase, 0.89 µM.
